Consider 29 compounds from patent publication US10227357B2, “Compounds and methods for kinase modulation, and indications therefor” (Plexxikon Inc., priority 2012, dated 2019).

Assay [1] concerns the target T1, c-kit kinase (Homo sapiens, UniProt P10721).
T1 construct: The c-kit (or kinase domain thereof) is an active kinase in AlphaScreen; poly-Histidine tag (in-house protein only) (cleaved yes); host or cells: E. coli BL21(DE3)RIL, co-expressed with PTP1B
The experiment in a line: c-Kit biochemical assay, AlphaScreen, 10 μM ATP. The note with it: c-kit biochemical inhibitory activity; read-out: Biochemical activity (IC50 μM) Kit. The method, boiled down:
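His-tagged c-Kit expressed in E. coli with co-expressed PTP1B (dephosphorylated), tag removed; 0.1 ng per reaction with biotinylated-peptide substrate in 50 mM HEPES pH 7.2, 5 mM MgCl2, 5 mM MnCl2, 5% DMSO, 10 μM ATP, 1 h at room temperature. Phosphorylation detected by AlphaScreen (streptavidin donor, PY20 acceptor beads); IC50 from 8-point 1:3 dilution series.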
(Bead proximity is the source of the signal in Alpha formats.)

Assay [2] deals with T2, c-kit mutant D816V (Homo sapiens, UniProt P10721, D816V/DEL694-753).
T2 construct: residues 551-934, kinase insertion domain residues 694-753 deleted; 6x-histidine (N); made in house; host or cells: E. coli Arctic Express (DE3) RIL (Stratagene)
T2 sequence (P10721 with tags, fused parts or gaps DEL694-753/D816V): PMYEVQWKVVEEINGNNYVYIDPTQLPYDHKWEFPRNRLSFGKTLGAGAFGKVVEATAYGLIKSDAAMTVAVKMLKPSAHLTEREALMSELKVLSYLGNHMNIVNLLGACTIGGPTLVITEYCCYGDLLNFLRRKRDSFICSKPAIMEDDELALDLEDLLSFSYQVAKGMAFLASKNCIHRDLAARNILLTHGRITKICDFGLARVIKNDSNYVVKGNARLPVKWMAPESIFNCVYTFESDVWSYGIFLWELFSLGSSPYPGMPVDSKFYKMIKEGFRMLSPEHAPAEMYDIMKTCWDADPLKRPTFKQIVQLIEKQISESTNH
The experiment in a line: c-Kit mutant D816V biochemical assay, AlphaScreen. The note with it: c-kit D816V biochemical inhibitory activity; read-out: Biochemical activity (IC50 μM) Kit D816V. A digest of the protocol:
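Purified His-tagged c-Kit D816V (E. coli-expressed) assayed in 25 mM HEPES pH 7.2 with Mg/Mn, 5% DMSO and 10 μM ATP, 30 min at room temperature, 8-point 1:3 dilutions. Phosphorylation detected by AlphaScreen with streptavidin donor and PY20 acceptor beads; IC50 from signal versus concentration.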

T1 sequence (P10721 26-976): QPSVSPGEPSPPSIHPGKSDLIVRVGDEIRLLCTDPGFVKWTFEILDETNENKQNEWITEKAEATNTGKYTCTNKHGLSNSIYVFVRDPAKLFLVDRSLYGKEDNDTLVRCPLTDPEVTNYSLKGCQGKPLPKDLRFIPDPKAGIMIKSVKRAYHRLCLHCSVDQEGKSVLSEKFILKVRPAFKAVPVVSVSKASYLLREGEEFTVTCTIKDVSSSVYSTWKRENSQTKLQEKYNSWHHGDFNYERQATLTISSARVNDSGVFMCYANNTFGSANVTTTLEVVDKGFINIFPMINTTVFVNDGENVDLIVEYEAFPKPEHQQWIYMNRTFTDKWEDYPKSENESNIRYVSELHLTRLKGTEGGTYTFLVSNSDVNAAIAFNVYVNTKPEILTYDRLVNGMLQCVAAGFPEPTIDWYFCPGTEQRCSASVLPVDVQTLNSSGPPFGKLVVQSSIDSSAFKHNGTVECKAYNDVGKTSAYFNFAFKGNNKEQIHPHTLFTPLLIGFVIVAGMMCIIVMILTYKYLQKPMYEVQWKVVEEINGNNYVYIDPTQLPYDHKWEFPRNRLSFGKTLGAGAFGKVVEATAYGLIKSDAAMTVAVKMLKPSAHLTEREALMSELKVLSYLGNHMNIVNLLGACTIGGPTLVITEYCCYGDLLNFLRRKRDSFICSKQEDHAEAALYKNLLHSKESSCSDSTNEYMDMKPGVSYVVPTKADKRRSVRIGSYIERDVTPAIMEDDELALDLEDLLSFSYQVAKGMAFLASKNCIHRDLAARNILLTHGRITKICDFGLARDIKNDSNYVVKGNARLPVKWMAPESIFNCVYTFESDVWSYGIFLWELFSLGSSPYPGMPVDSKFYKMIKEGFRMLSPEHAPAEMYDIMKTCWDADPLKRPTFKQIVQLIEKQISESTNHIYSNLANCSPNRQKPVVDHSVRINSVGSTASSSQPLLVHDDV

On to `O=C(NCc1ccc(Cl)cc1)N1CCN(c2ncnc3[nH]c(-c4ccc(Cl)cc4)cc23)CC1` [P-0212, N-[(4-chlorophenyl)methyl]-4-[6-(4-chlorophenyl)-7H-pyrrolo[2,3-d]pyrimidin-4-yl]piperazine-1-carboxamide], for which the figures for the IC50 in assay [1] and in assay [2] were 1 to 10 µM and 0.0001 to 1 µM, respectively.

As for `O=C(NCc1ccc(F)cc1)N1CCN(c2ncnc3[nH]c(-c4ccc(Cl)cc4)cc23)CC1` [P-0213, 4-[6-(4-chlorophenyl)-7H-pyrrolo[2,3-d]pyrimidin-4-yl]-N-[(4-fluorophenyl)methyl]piperazine-1-carboxamide], the IC50 in assay [1] and in assay [2] was 10 to 200 µM in each case.

As for `CCOc1ccc(NC(=O)N2CCN(c3ncnc4[nH]c(-c5ccc(Cl)cc5)cc34)CC2)cc1` [P-0214, 4-[6-(4-chlorophenyl)-7H-pyrrolo[2,3-d]pyrimidin-4-yl]-N-(4-ethoxyphenyl)piperazine-1-carboxamide], the IC50 in assay [1] and in assay [2] was 0.0001 to 1 µM in each case.

Consider `O=C(NCc1ccc(Cl)cc1)N1CCN(c2ncnc3[nH]c(-c4ccccc4)cc23)CC1` [P-0215, N-[(4-chlorophenyl)methyl]-4-(6-phenyl-7H-pyrrolo[2,3-d]pyrimidin-4-yl)piperazine-1-carboxamide], for which the 50% inhibitory concentration (IC50) in assay [1] and in assay [2] was 10 to 200 µM in each case.

As for `COc1ccc(S(=O)(=O)N2CCN(c3ncnc4[nH]ccc34)CC2)cc1` [P-0217, 4-[4-(4-methoxyphenyl)sulfonylpiperazin-1-yl]-7H-pyrrolo[2,3-d]pyrimidine], the IC50 is 1 to 10 µM in assay [1] and 10 to 200 µM in assay [2].

As to `CCCNC(=O)N1CCN(c2ncnc3[nH]c(-c4cccnc4)cc23)CC1` [P-0218, N-propyl-4-[6-(3-pyridyl)-7H-pyrrolo[2,3-d]pyrimidin-4-yl]piperazine-1-carboxamide], the IC50 in assay [1] fell in the range of 10 to 200 µM; in assay [2], 1 to 10 µM.

As to `O=C(Nc1ccccc1Cl)N1CCN(c2ncnc3[nH]c(-c4cccnc4)cc23)CC1` [P-0219, N-(2-chlorophenyl)-4-[6-(3-pyridyl)-7H-pyrrolo[2,3-d]pyrimidin-4-yl]piperazine-1-carboxamide], the IC50 in assay [1] lay in the range of 10 to 200 µM; in assay [2], 1 to 10 µM.

`O=C(Nc1ccccc1Cl)N1CCN(c2ncnc3[nH]c(-c4cccnc4)cc23)CC1` [P-0220, N-(2-chlorophenyl)-4-[6-(3-pyridyl)-7H-pyrrolo[2,3-d]pyrimidin-4-yl]piperazine-1-carboxamide]: the IC50 in assay [1] and in assay [2] was 0.0001 to 1 µM throughout.

In the case of `CCOc1cccc(NC(=O)N2CCN(c3ncnc4[nH]c(-c5cccnc5)cc34)CC2)c1` [P-0221, N-(3-ethoxyphenyl)-4-[6-(3-pyridyl)-7H-pyrrolo[2,3-d]pyrimidin-4-yl]piperazine-1-carboxamide], the results for the IC50 in assay [1] and in assay [2] were 1 to 10 µM and 0.0001 to 1 µM, respectively.

Turning to `O=C(NCc1ccc(F)cc1)N1CCN(c2ncnc3[nH]c(-c4cccnc4)cc23)CC1` [P-0222, N-[(4-fluorophenyl)methyl]-4-[6-(3-pyridyl)-7H-pyrrolo[2,3-d]pyrimidin-4-yl]piperazine-1-carboxamide], the IC50 in assay [1] and in assay [2] was 1 to 10 µM each time.

With `O=C(Nc1cccc(C(F)(F)F)c1)N1CCN(c2ncnc3[nH]c(-c4cccnc4)cc23)CC1` [P-0223, 4-[6-(3-pyridyl)-7H-pyrrolo[2,3-d]pyrimidin-4-yl]-N-[3-(trifluoromethyl)phenyl]piperazine-1-carboxamide], the 50% inhibitory concentration (IC50) in assay [1] and in assay [2] was 0.0001 to 1 µM each time.

Regarding `O=C(Nc1ccc(OC(F)(F)F)cc1)N1CCN(c2ncnc3[nH]c(-c4cccnc4)cc23)CC1` [P-0224, 4-[6-(3-pyridyl)-7H-pyrrolo[2,3-d]pyrimidin-4-yl]-N-[4-(trifluoromethoxy)phenyl]piperazine-1-carboxamide], the IC50 in assay [1] and in assay [2] was 0.0001 to 1 µM each time.

Take `CCOc1ccc(NC(=O)N2CCN(c3ncnc4[nH]c(-c5cccnc5)cc34)CC2)cc1` [P-0225, N-(4-ethoxyphenyl)-4-[6-(3-pyridyl)-7H-pyrrolo[2,3-d]pyrimidin-4-yl]piperazine-1-carboxamide]: the IC50 fell in the range of 10 to 200 µM in assay [1] and 1 to 10 µM in assay [2].

Consider `O=C(NCc1ccc(F)cc1)N1CCN(c2ncnc3[nH]cc(-c4ccccc4)c23)CC1` [P-0226, N-[(4-fluorophenyl)methyl]-4-(5-phenyl-7H-pyrrolo[2,3-d]pyrimidin-4-yl)piperazine-1-carboxamide], for which the results for the IC50 in assay [1] and in assay [2] were 1 to 10 µM and 10 to 200 µM, respectively.

`COc1cc(NC(=O)N2CCN(c3ncnc4[nH]c(-c5cccnc5)cc34)CC2)cc(OC)c1` [P-0229, N-(3,5-dimethoxyphenyl)-4-[6-(3-pyridyl)-7H-pyrrolo[2,3-d]pyrimidin-4-yl]piperazine-1-carboxamide]: the IC50 in assay [1] fell in the range of 1 to 10 µM; in assay [2], 0.0001 to 1 µM.

Regarding `CC(C)(C)OC(=O)N1CCN(c2ncnc3[nH]c(-c4cccnc4)cc23)CC1` [P-0232, tert-butyl 4-[6-(3-pyridyl)-7H-pyrrolo[2,3-d]pyrimidin-4-yl]piperazine-1-carboxylate], the IC50 in assay [1] and in assay [2] was 10 to 200 µM in each case.

With `c1nc(N2CCNCC2)c2cc[nH]c2n1` [P-0233, 4-piperazin-1-yl-7H-pyrrolo[2,3-d]pyrimidine], the IC50 in assay [1] and in assay [2] was 10 to 200 µM each time.

Turning to `COc1ccc(C(=O)N2CCN(c3ncnc4[nH]ccc34)CC2)cc1` [P-0234, (4-methoxyphenyl)-[4-(7H-pyrrolo[2,3-d]pyrimidin-4-yl)piperazin-1-yl]methanone], the half-maximal inhibitory concentration (IC50) in assay [1] and in assay [2] was 10 to 200 µM each time.

For the compound `COc1ccc(NC(=O)N2CCN(c3ncnc4[nH]ccc34)CC2)cc1` [P-0235, N-(4-methoxyphenyl)-4-(7H-pyrrolo[2,3-d]pyrimidin-4-yl)piperazine-1-carboxamide], the IC50 was 10 to 200 µM in assay [1] and 1 to 10 µM in assay [2].

As to `CCCNC(=O)N1CCN(c2ncnc3[nH]c(-c4ccccc4)cc23)CC1` [P-0236, 4-(6-phenyl-7H-pyrrolo[2,3-d]pyrimidin-4-yl)-N-propyl-piperazine-1-carboxamide], the values for the IC50 in assay [1] and in assay [2] were 1 to 10 µM and 10 to 200 µM, respectively.

For `O=C(Nc1ccccc1Cl)N1CCN(c2ncnc3[nH]c(-c4ccccc4)cc23)CC1` [P-0237, N-(2-chlorophenyl)-4-(6-phenyl-7H-pyrrolo[2,3-d]pyrimidin-4-yl)piperazine-1-carboxamide], the IC50 in assay [1] lay in the range of 0.0001 to 1 µM; in assay [2], 1 to 10 µM.

With `COc1cc(NC(=O)N2CCN(c3ncnc4[nH]c(-c5ccccc5)cc34)CC2)cc(OC)c1` [P-0239, N-(3,5-dimethoxyphenyl)-4-(6-phenyl-7H-pyrrolo[2,3-d]pyrimidin-4-yl)piperazine-1-carboxamide], the half-maximal inhibitory concentration (IC50) was 0.0001 to 1 µM in assay [1] and 1 to 10 µM in assay [2].

As for `CCCNS(=O)(=O)N1CCN(c2ncnc3[nH]c(-c4ccccc4)cc23)CC1` [P-0241, 4-(6-phenyl-7H-pyrrolo[2,3-d]pyrimidin-4-yl)-N-propyl-piperazine-1-sulfonamide], the IC50 in assay [1] lay within 1 to 10 µM; in assay [2] it was 0.0001 to 1 µM.

Take `O=C(NCc1ccc(F)cc1)N1CCN(c2ncnc3[nH]c(-c4ccccc4)cc23)CC1` [P-0242, N-[(4-fluorophenyl)methyl]-4-(6-phenyl-7H-pyrrolo[2,3-d]pyrimidin-4-yl)piperazine-1-carboxamide]: the values for the half-inhibitory concentration (IC50) in assay [1] and in assay [2] were 0.0001 to 1 µM and 1 to 10 µM, respectively.

Regarding `COc1cc2ncnc(-c3ccc(S(=O)(=O)Nc4ccc(Cl)cc4)cc3F)c2cc1OCCCN1CCOCC1` [P-0247, N-(4-chlorophenyl)-3-fluoro-4-[7-methoxy-6-(3-morpholinopropoxy)quinazolin-4-yl]benzenesulfonamide], the concentration for half-maximal inhibition (IC50) in assay [1] lay within 1 to 10 µM; in assay [2], 0.0001 to 1 µM.

Regarding `COc1cc2ncnc(-c3ccc(S(=O)(=O)Nc4ccc(F)cc4)cc3F)c2cc1OCCCN1CCOCC1` [P-0248, 3-fluoro-N-(4-fluorophenyl)-4-[7-methoxy-6-(3-morpholinopropoxy)quinazolin-4-yl]benzenesulfonamide], the IC50 was in the range of 10 to 200 µM in assay [1] and 1 to 10 µM in assay [2].

With `COc1ccc(S(=O)(=O)Nc2ccc(-c3ncnc4cc(OC)c(OCCCN5CCOCC5)cc34)c(F)c2)cc1` [P-0249, N-[3-fluoro-4-[7-methoxy-6-(3-morpholinopropoxy)quinazolin-4-yl]phenyl]-4-methoxy-benzenesulfonamide], the IC50 lay within 1 to 10 µM in assay [1] and 0.0001 to 1 µM in assay [2].

In the case of `COc1cc2ncnc(-c3ccc(NS(=O)(=O)c4ccc(Cl)cc4)cc3F)c2cc1OCCCN1CCOCC1` [P-0250, 4-chloro-N-[3-fluoro-4-[7-methoxy-6-(3-morpholinopropoxy)quinazolin-4-yl]phenyl]benzenesulfonamide], the IC50 in assay [1] and in assay [2] was 0.0001 to 1 µM throughout.

For the compound `COc1cc2ncnc(-c3ccc(NS(=O)(=O)C4CC4)cc3F)c2cc1OCCCN1CCOCC1` [P-0251, N-[3-fluoro-4-[7-methoxy-6-(3-morpholinopropoxy)quinazolin-4-yl]phenyl]cyclopropanesulfonamide], the 50% inhibitory concentration (IC50) was in the range of 10 to 200 µM in assay [1] and 0.0001 to 1 µM in assay [2].

In general, IC50 refers to the point on the concentration scale where inhibition reaches its midpoint.
